According to patent US11840497B2, “4-(p-quinonyl)-2-hydroxybutanamide derivatives for treatment of mitochondrial diseases” (PTC Therapeutics, Inc., priority 2007, dated 2023):

Columns and labels:
Format in all cases: cell-based
[1] = tested on: human dermal fibroblasts from LHON patients; assay: Rescue of BSO-stressed fibroblasts from LHON patients (Example C); settings: Fibroblast, LHON fibroblasts GM03858, screen as Example A, read-out: protection against LHON, EC50
Description: The compounds were tested for their ability to rescue human dermal fibroblasts from LHON patients from oxidative stress.

[2] = tested on: human dermal fibroblasts from Parkinson's Disease patients; assay: Rescue of BSO-stressed fibroblasts from Parkinson's Disease patients (Example D); settings: Fibroblast, PD fibroblasts AG20439, screen as Example A, read-out: protection against PD, EC50
Description: The compounds were tested for their ability to rescue human dermal fibroblasts from Parkinson's Disease patients from oxidative stress.

[3] = tested on: Human dermal fibroblasts from Friedreich's Ataxia patients; assay: Rescue of BSO-stressed FRDA fibroblasts (Example A); settings: FRDA fibroblasts GM04078, 1 mM BSO, read-out: protection against FRDA, EC50
Description: Test samples, 4 reference compounds (idebenone, decylubiquinone, Trolox and α-tocopherol acetate), and solvent controls were tested for their ability to rescue FRDA fibroblasts stressed by addition of L-buthionine (S,R)-sulfoximine (BSO), as described in Jauslin et al., Hum. Mol. Genet. […] Mol. Genet. […] This specific BSO-mediated cell death can be prevented by administration of antioxidants or molecules involved in the antioxidant pathway, such as α-tocopherol, selenium, or small molecule glutathione peroxidase mimetics. However, antioxidants differ in their potency, i.e. the concentration at which they are able to rescue BSO-stressed FRDA fibroblasts.
Fetal Calf Serum was obtained from PAA Laboratories. Basic fibroblast growth factor and epidermal growth factor were purchased from PeproTech. Penicillin-streptomycin-glutamine mix, L-buthionine (S,R)-sulfoximine, (+)-α-tocopherol acetate, decylubiquinone, and insulin from bovine pancreas were purchased from Sigma. Trolox (6-Hydroxy-2,5,7,8-tetramethylchroman-2-carboxylic acid) was obtained from Fluka. Idebenone was obtained from Chemo Iberica. Calcein AM was purchased from Molecular Probes. Cell culture medium was made by combining 125 ml M199 EBS, 50 ml Fetal Calf Serum, 100 U/ml penicillin, 100 μg/ml streptomycin, 2 mM glutamine, 10 μg/ml insulin, 10 ng/ml EGF, and 10 ng/ml bFGF; MEM EBS was added to make the volume up to 500 ml. […] During the course of the experiments, this solution was stored at +4° C. The cells were obtained from the Coriell Cell Repositories (Camden, NJ; repository number GM04078) and grown in 10 cm tissue culture plates. Every third day, they were split at a 1:3 ratio.
The test samples were supplied in 1.5 ml glass vials. […] Once dissolved, they were stored at −20° C. Reference antioxidants (idebenone, decylubiquinone, α-tocopherol acetate and trolox) were dissolved in DMSO.
Test samples were screened according to the following protocol: A culture with FRDA fibroblasts was started from a 1 ml vial with approximately 500,000 cells stored in liquid nitrogen. […] Once confluent, fibroblasts were harvested. […] The remaining cells were distributed in 10 cm cell culture plates (500,000 cells/plate) for propagation. The plates were incubated overnight at 37° C. in a atmosphere with 95% humidity and 5% CO2 to allow attachment of the cells to the culture plate.
MTP medium (243 μl) was added to a well of the microtiter plate. […] Serial dilutions from the master solution were made. The period between the single dilution steps was kept as short as possible (generally less than 1 second).
Plates were kept overnight in the cell culture incubator. The next day, 10 μl of a 10 mM BSO solution were added to the wells, resulting in a 1 mM final BSO concentration. Forty-eight hours later, three plates were examined under a phase-contrast microscope to verify that the cells in the 0% control (wells E1-H1) were clearly dead. The medium from all plates was discarded, and the remaining liquid was removed by gently tapping the plate inversed onto a paper towel.
The plates were incubated for 50-70 minutes at room temperature. After that time the PBS was discarded, the plate gently tapped on a paper towel and fluorescence (excitation/emission wavelengths of 485 nm and 525 nm, respectively) was read on a Gemini fluorescence reader. Data was imported into Microsoft Excel (EXCEL is a registered trademark of Microsoft Corporation for a spreadsheet program) and used to calculate the EC50 concentration for each compound.
The compounds were tested three times, i.e., the experiment was performed three times, the passage number of the cells increasing by one with every repetition.
The viability of non-BSO treated fibroblasts was set as 100%, and the viability of the BSO- and compound-treated cells was calculated as relative to this value.

[4] = tested on: human dermal fibroblasts from Huntington's patients; assay: Rescue of BSO-stressed fibroblasts from Huntington's patients (Example B); settings: Fibroblast, Huntington's fibroblasts GM 04281, screen as Example A, read-out: protection against Hungtington's, EC50
Description: The compounds were tested for their ability to rescue human dermal fibroblasts from Huntington's patients from oxidative stress.

[5] = tested on: human dermal fibroblasts from CoQ10 deficient patients; assay: Rescue of stressed fibroblasts from CoQ10 deficient patients (Example E); settings: Fibroblast, fibroblasts harboring a CoQ2 mutation, screen similar to Example A, read-out: protection against CoQ10 deficiency, EC50
Description: Compounds of the invention were tested using a screen similar to the one described in Example A, but substituting FRDA cells with cells obtained from CoQ10 deficient patients harboring a CoQ2 mutation.

Measured: EC50

CC1=C(C)C(=O)C(CCC(C)(O)C(=O)N2CCN(Cc3ccccc3)CC2)=C(C)C1=O (stereo not shown) [Example 15, 2-(4-(4-Benzylpiperazin-1-yl)-3-hydroxy-3-methyl-4-oxobutyl)-3,5,6-trimethylcyclohexa-2,5-diene-1,4-dione]
not listed: [5]
< 100 nM: all other assays above

CC1=C(C)C(=O)C(CCC(C)(O)C(=O)NCCO)=C(C)C1=O (stereo not shown) [Example 20, 2-Hydroxy-N-(2-hydroxyethyl)-2-methyl-4-(2,4,5-trimethyl-3,6-dioxocyclohexa-1,4-dienyl)butanamide]
< 100 nM: all assays above

CC1=C(C)C(=O)C(CCC(C)(O)C(=O)NCCOCCO)=C(C)C1=O (stereo not shown) [Example 25, 2-Hydroxy-N-(2-(2-hydroxyethoxy)ethyl)-2-methyl-4-(2,4,5-trimethyl-3,6-dioxocyclohexa-1,4-dienyl)butanamide]
not listed: [5]
< 100 nM: all other assays above

CC1=C(C)C(=O)C(CC[C@](C)(O)C(=O)NCCO)=C(C)C1=O [Example 28, (S)-2-hydroxy-N-(2-hydroxyethyl)-2-methyl-4-(2,4,5-trimethyl-3,6-dioxocyclohexa-1,4-dienyl)butanamide]
< 100 nM: [2] | [3] | [4]

CC1=C(C)C(=O)C(CCC(C)(O)C(=O)NCCc2ccc(O)cc2)=C(C)C1=O (stereo not shown) [Example 36, N-(4-Hydroxyphenethyl)-2-hydroxy-2-methyl-4-(2,4,5-trimethyl-3,6-dioxocyclohexa-1,4-dienyl)butanamide]
not listed: [5]
< 100 nM: all other assays above

CC1=C(C)C(=O)C(CCC(C)(O)C(=O)NCCN(C)C)=C(C)C1=O (stereo not shown) [Example 37, N-(2-(Dimethylamino)ethyl)-2-hydroxy-2-methyl-4-(2,4,5-trimethyl-3,6-dioxocyclohexa-1,4-dienyl)butanamide]
< 100 nM: all assays above

CC1=C(C)C(=O)C(CCC(C)(O)C(=O)NCCCN(C)C)=C(C)C1=O (stereo not shown) [Example 40, N-(3-(Dimethylamino)propyl)-2-hydroxy-2-methyl-4-(2,4,5-trimethyl-3,6-dioxocyclohexa-1,4-dienyl)butanamide]
< 100 nM: [2] | [3] | [4]
